Experimental data: PMC10914731, “Homo-BacPROTAC-induced degradation of ClpC1 as a strategy against drug-resistant mycobacteria” (Nature Communications, 2024)
≈ marks a conversion by molar mass, not a printed value. Where “and” joins values, the source holds several entries; their conditions need not be identical. Identical values can stand only once. Like-named read-outs stand apart in the source and are kept apart here. *1 amine or outer side, *2 acyl side, *3 side chain or, on linkers, in order; H or OH if unused. Where a SMILES comes first, the peptide text is derived from it. [ ]: non-standard residue; d: D form. X1 = C#CCn1cc(C[C@H](N[*:1])C(=O)[*:2])c2ccccc21; NMeLeu(5-OH,4R) = CN[C@@H](C[C@@H](C)CO)C(=O)O; Phe(βR-OMe) = CO[C@H](c1ccccc1)[C@H](N)C(=O)O; Trp(1-Me) = Cn1cc(C[C@H](N)C(=O)O)c2ccccc21; NMeL = CN[C@@H](CC(C)C)C(=O)O; Pra = C#CC[C@H](N)C(=O)O

Legend:
[1] = test system: Mtb (katG del) ATCC 35822; experiment: microbe, parasite or virus in culture; type: cell-based
[2] = target: endogenous ClpC1 in Msm #607 cells (Mycolicibacterium smegmatis, UniProt A0R574); type: cell-based, M. smegmatis; conditions: for ClpC1 peak area: 100 µM, Figure 5c, well replicates of 3 experiments; for intracellular degradation of ClpC1: Msm #607, 24 h, result in words
[3] = type: in vitro ADME, Rat; conditions: for Microsomal Stability Rat: clearance in microsomes
Summary of the method: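 1 µmol/l cpd + 0.5 mg/ml microsomes, Tris-HCl 100 mM pH 7.5 / MgCl2 6.5 mM / NADPH 1 mM, 37 °C. Timed acetonitrile quench, spin, supernatant by HPLC-MS/MS. t1/2 from first-order decay → clearance %Qh, well-stirred model.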

[4] = target: ClpC1 NTD protein (M. tuberculosis) (Mycobacterium tuberculosis, UniProt P9WPC9); experiment: biochemical; type: binding
[5] = Hepatocyte stability, mice; type: in vitro ADME
Summary of the method: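 Clearance, expressed as % of liver blood flow (% Qh), derived from parent-compound half-life by the well-stirred model, with HPLC-MS/MS quantitation after acetonitrile quench. Test compound at 1 µM final added to mouse hepatocyte suspension in 50% serum after 15–30 min acclimation at 37 °C; six samples over up to 6 h.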

Msm 700084 = experiment: microbe, parasite or virus in culture; type: cell-based
[6] = Mycobacterium tuberculosis, ATCC35822, M. tuberculosis ATCC 35822, single well replicates
[7] = Mycobacterium tuberculosis, ATCC35822, Mtb (katG del) ATCC 35822, mean ± SD, n = 3 well replicates
[8] = SPR, individual measurements (source data), read-out: KD ClpC1-NTD
[9] = SPR, single independent measurements
[10] = SPR, read-out: ClpC1-NTD KD Mean ± SD
[11] = Mycolicibacterium smegmatis, 700084, single determinations, read-out: Msm 700084 MIC
[12] = Mycolicibacterium smegmatis, 700084, read-out: MIC Msm 700084

Sequence of ClpC1 NTD protein (M. tuberculosis) (P9WPC9 1-156, looked up, natural form): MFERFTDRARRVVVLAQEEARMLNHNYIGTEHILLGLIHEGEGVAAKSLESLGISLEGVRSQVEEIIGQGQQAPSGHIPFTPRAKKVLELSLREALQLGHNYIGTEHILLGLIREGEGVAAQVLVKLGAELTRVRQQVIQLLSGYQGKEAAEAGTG
Sequence of endogenous ClpC1 in Msm #607 cells (A0R574 whole entry): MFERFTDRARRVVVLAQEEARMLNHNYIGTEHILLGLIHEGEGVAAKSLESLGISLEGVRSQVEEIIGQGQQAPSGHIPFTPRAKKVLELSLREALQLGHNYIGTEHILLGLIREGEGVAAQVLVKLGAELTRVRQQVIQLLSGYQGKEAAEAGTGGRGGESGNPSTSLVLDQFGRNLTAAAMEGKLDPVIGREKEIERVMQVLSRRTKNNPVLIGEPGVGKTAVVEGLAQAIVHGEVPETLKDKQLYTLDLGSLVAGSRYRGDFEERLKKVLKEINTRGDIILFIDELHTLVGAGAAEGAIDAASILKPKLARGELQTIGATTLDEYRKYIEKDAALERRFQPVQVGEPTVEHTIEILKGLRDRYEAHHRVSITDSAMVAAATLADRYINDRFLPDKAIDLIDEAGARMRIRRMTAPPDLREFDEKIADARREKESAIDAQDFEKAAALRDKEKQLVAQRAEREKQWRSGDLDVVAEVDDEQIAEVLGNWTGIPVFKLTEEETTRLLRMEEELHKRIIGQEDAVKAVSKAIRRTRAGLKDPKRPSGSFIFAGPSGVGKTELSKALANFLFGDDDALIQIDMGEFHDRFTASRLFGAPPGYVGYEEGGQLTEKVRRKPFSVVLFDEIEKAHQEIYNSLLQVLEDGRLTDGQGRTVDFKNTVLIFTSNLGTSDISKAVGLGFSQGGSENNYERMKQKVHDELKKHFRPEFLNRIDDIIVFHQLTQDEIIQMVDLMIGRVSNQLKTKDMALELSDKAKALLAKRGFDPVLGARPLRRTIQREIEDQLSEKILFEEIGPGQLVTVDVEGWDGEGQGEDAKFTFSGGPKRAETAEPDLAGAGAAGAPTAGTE

| Structure (SMILES) | MIC [1, 6] [µM] | MIC [1, 7] [µM] | ClpC1 peak area [2] | intracellular degradation of ClpC1 [2] | Microsomal Stability Rat QH [3] [%] | Microsomal Stability Rat [3] [%Qh] | Kd [4, 8] | koff ClpC1-NTD [4, 9] [s⁻¹] | koff ([4]; SPR, single independent measurements, read-out: koff ClpC1-NTD) [s⁻¹] | Kd [4, 10] [nM] | Hepatocyte Mice ([5]; mouse, pH 7.4) [%Qh] | MIC (Msm 700084; [11]) [µM] | MIC (Msm 700084; [12]) [µM] | MIC ([1]; M. tuberculosis ATCC 35822, single well replicates) [µM] | koff ([4]; SPR dissociation rate constant, read-out: koff ClpC1-NTD Mean ± SD) [s⁻¹] | Hepatocyte Mice ([5]; clearance in hepatocytes) [%Qh] | Hepatocyte Stability Mouse QH ([5]; Mouse) [%] |
| --- | --- | --- | --- | --- | --- | --- | --- | --- | --- | --- | --- | --- | --- | --- | --- | --- | --- |
| C#CCn1cc(C[C@@H]2NC(=O)[C@H](C(C)C)NC(=O)[C@H](CC(C)C)N(C)C(=O)[C@H](C(C)C)NC(=O)[C@H]([C@H](OC)c3ccccc3)NC(=O)[C@H](C)NC(=O)[C@H](C[C@@H](C)CO)N(C)C2=O)c2ccccc21 [Compound 5] (cyclo(A[Phe(βR-OMe)]V[NMeL]V[X1][NMeLeu(5-OH,4R)])) | 0.781 (≈ 0.735 µg/mL) | 0.8 (≈ 0.753 µg/mL) | 296040 and 308121 and 346162 and 550976 and 476988 and 428795 and 417149 and 443522 and 406576 | did not induce degradation of ClpC1 | >87.900 | > 88 | 3.63 nM and 3.45 nM | 0.04 | 0.02 | 3.5 ± 0.1 | 58 | 6.25 (≈ 5.88 µg/mL) | 6.3 (≈ 5.93 µg/mL) |  |  |  |  |
| COc1c(N2C[C@@H]3CCCN[C@@H]3C2)c(F)cc2c(=O)c(C(=O)O)cn(C3CC3)c12 [Moxifloxacin, reference compound] | 0.31 (≈ 0.124 µg/mL) | 0.3 (≈ 0.12 µg/mL) |  |  |  |  |  |  |  |  |  |  |  | 0.31 (≈ 0.124 µg/mL) |  |  |  |
| CO[C@H](c1ccccc1)[C@@H]1NC(=O)[C@H](C)NC(=O)[C@H](C[C@@H](C)CO)N(C)C(=O)[C@H](Cc2cn(Cc3cn(CCOCCn4cc(Cn5cc(C[C@@H]6NC(=O)[C@H](C(C)C)NC(=O)[C@H](CC(C)C)N(C)C(=O)[C@H](C(C)C)NC(=O)[C@H]([C@H](OC)c7ccccc7)NC(=O)[C@H](C)NC(=O)[C@H](C[C@@H](C)CO)N(C)C6=O)c6ccccc65)nn4)nn3)c3ccccc23)NC(=O)[C@H](C(C)C)NC(=O)[C@H](CC(C)C)N(C)C(=O)[C@H](C(C)C)NC1=O [Compound 6] |  |  |  |  | <23.100 | < 23 | 1.36 nM and 1.13 nM and 0.535 nM and 0.649 nM | 0.001 |  | 0.9 ± 0.4 |  |  | 20.8 ± 15.1 (≈ 42.4 µg/mL) |  | 0.001 | 15 |  |
| C#CC[C@@H]1NC(=O)[C@H](CC(C)C)N(C)C(=O)[C@H](C(C)C)NC(=O)[C@H]([C@H](OC)c2ccccc2)NC(=O)[C@H](C)NC(=O)[C@H](C[C@@H](C)CO)N(C)C(=O)[C@H](Cc2cn(C)c3ccccc23)NC1=O [Compound 10] (cyclo(A[Phe(βR-OMe)]V[NMeL][Pra][Trp(1-Me)][NMeLeu(5-OH,4R)])) | 1.56 (≈ 1.42 µg/mL) | 1.6 (≈ 1.46 µg/mL) | 412581 and 373241 and 483939 and 462615 and 61275.5 and 294306 and 484139 and 455205 and 481589 | did not induce degradation of ClpC1 | 84.600 | 85 | 4.65 nM and 4.5 nM and 3.27 nM and 3.4 nM |  |  | 4 ± 0.7 |  | 25 (≈ 22.8 µg/mL) | 25 (≈ 22.8 µg/mL) |  |  | 64 | 64.420 |
